Measured values from US20130310379A1, “MODULATORS OF METHYL MODIFYING ENZYMES, COMPOSITIONS AND USES THEREOF” (CONSTELLATION PHARMACEUTICALS, priority 2010, published 2013).

Experiments:
Y641N EZH2 = Y641N EZH2 (Homo sapiens, UniProt Q15910, Y641N); experiment: Y641N EZH2 assay: performed as the EZH2 assay, using reconstituted H3K27Me2 oligonucleosomes as substrate; type: biochemical
Experimental: Assays were carried out by mixing rPRC2 together with biotinylated oligonucleosome substrates in the presence of the radio-labeled enzyme co-factor, S-adenosyl-L-methionine (^3H SAM) (Perkin Elmer) and monitoring the enzymatically mediated transfer of tritiated methyl groups from ^3H SAM to histone lysine residues. The amount of resulting tritated methylhistone product was measured by first capturing the biotinylated oligonuclesomes in streptavidin (SAV) coated FlashPlates (Perkin Elmer), followed by a wash step to remove un-reacted ^3H SAM, and then counting on a TopCount NXT 384 well plate scintillation counter (Perkin Elmer). The final assay conditions for EZH2 were as follows: 50 mM Tris Buffer pH 8.5, 1 mM DTT, 69 uM Brij-35 detergent, 5.0 mM MgCl2, 0.1 mg/mL BSA, 0.2 uM ^3H SAM, 0.2 uM biotinylated oligonucleosomes, 3.6 uM H3K27me3 peptide and 2 nM EZH2.
Compound IC50 measurements were obtained as follows: Compounds were first dissolved in 100% DMSO as 10 mM stock solutions. […] A 12.5 uL volume of the HMT enzyme, H3K27me3 peptide and oligonucleosome substrate in assay buffer was added to each well of the assay plate using a Multidrop Combi (ThermoFisher). Compounds were pre-incubated with the enzyme for 20 min, followed by initiation of the methyltransferase reaction by addition of 12.5 uL of 3H SAM in assay buffer (final volume=25 uL). The final concentrations of compounds ranged from a top default concentration of 80 uM down to 0.16 uM in ten 2-fold dilution steps. Reactions were carried out for 60 minutes and quenched with 20 uL per well of 1.96 mM SAH, 50 mM Tris PH 8.5, 200 mM EDTA. Stopped reactions were transferred to SAV coated Flashplates (Perkin Elmer), incubated for 120 min, washed with a plate washer, and then read on the TopCount NXT (1.0 min/well) to measure the amount of methylhistone product formed during the reaction. The amount of methylhistone product was compared with the amount of product formed in the 0% and 100% inhibition control wells allowing the calculation of % Inhibition in the presence of the individual compounds at various concentrations. IC50's were computed using a 4 parameter fit non-linear curve fitting software package (XLFIT, part of the database package, ActivityBase (IDBS)) where the four parameters were IC50, Hill slope, pre-transitional baseline (0% INH), and post-transitional baseline (100% INH); with the latter two parameters being fixed to zero and 100%, respectively, by default.

EZH2 = EZH2 (Homo sapiens, UniProt Q15910); experiment: EZH2 assay: rPRC2 with biotinylated oligonucleosome substrates and 3H SAM, FlashPlate scintillation counting, IC50; type: biochemical; details: rPRC2, biotinylated oligonucleosome substrates, 3H SAM; read-out: EZH2 IC50
Summary of the method: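 IC50 from 4-parameter fit, baselines fixed at 0 and 100%. Compounds (top 80 uM, 2-fold series to 0.16 uM) pre-incubated 20 min with 2 nM EZH2-PRC2; 60-min methylation in pH 8.5 Tris with 0.2 uM 3H SAM, 0.2 uM oligonucleosomes, 3.6 uM H3K27me3 peptide.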

Sequence of Y641N EZH2 (Q15910 whole entry Y641N): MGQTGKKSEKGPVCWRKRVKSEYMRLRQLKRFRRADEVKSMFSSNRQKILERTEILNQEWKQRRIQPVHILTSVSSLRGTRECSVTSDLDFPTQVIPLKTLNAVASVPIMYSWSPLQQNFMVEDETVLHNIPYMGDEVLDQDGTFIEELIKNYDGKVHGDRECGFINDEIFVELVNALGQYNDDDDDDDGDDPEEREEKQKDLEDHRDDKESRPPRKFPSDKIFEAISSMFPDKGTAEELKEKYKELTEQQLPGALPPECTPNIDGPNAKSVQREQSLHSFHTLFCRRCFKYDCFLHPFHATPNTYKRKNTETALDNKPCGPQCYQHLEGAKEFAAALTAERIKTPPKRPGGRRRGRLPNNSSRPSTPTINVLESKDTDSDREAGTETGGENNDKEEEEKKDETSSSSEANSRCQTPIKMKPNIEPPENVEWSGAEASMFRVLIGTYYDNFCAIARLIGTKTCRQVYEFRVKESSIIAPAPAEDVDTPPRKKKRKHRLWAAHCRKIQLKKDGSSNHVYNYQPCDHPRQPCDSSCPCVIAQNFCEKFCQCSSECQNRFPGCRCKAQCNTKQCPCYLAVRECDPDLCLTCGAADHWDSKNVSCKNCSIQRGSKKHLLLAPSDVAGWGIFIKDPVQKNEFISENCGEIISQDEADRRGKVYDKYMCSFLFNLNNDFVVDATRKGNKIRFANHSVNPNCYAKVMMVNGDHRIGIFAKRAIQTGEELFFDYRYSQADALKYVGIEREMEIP
Sequence of Y641N EZH2 (O75530 whole entry partner): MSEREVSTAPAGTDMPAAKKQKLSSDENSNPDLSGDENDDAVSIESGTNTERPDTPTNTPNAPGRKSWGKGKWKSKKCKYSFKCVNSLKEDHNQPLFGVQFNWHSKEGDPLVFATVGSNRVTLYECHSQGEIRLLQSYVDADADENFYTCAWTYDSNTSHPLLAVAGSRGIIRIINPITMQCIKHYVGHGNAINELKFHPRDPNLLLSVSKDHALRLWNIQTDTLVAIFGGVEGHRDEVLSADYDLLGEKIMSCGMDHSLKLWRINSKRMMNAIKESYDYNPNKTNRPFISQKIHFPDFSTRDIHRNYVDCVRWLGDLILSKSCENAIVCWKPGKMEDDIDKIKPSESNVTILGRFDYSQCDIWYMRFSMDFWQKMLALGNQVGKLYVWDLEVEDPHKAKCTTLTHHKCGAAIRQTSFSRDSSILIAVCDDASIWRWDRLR
Sequence of Y641N EZH2 (Q15022 whole entry partner): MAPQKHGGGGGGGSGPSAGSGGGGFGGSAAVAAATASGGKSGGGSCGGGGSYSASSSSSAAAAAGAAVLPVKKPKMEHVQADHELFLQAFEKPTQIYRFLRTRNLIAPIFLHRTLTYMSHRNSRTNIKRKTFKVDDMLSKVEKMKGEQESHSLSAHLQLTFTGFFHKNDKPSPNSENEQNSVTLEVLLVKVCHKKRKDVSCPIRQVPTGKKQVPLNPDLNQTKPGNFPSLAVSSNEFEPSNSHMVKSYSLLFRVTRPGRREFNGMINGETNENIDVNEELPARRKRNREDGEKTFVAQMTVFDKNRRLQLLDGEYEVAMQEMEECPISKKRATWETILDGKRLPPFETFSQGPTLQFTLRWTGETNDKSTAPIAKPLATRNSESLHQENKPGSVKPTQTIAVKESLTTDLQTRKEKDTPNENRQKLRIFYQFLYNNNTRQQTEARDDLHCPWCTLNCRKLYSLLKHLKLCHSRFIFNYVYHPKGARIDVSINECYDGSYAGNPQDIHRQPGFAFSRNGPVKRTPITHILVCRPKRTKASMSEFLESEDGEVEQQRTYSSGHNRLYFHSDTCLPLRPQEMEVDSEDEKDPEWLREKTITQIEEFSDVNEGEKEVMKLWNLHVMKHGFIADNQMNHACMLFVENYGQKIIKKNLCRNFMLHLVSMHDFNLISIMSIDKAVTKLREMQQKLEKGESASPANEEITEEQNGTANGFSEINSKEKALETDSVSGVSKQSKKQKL
Sequence of EZH2 (Q15910 whole entry): as the sequence (Q15910 whole entry Y641N) above, with N641Y counted along it
Sequence of EZH2 (O75530 whole entry partner): as the sequence (O75530 whole entry partner) above
Sequence of EZH2 (Q15022 whole entry partner): as the sequence (Q15022 whole entry partner) above

SMILES | IC50 (Y641N EZH2) [µM] | IC50 (EZH2) [µM]
CC1(C)CC(NC(=O)c2ccc(Oc3cccc(-c4ccc(N)nc4)c3)cc2)CC(C)(C)N1 [Compound I-228] | > 80 | 5 to 20
CC1(C)CC(NC(=O)c2ccc(Oc3cccc(-c4ccc(N)nc4)c3C#N)c(Cl)c2)CC(C)(C)N1 [Compound I-312] | < 5 | < 5
CN(C)c1ccc(-c2cccc(OCc3ccc(C(=O)NC4CC(C)(C)NC(C)(C)C4)cc3)c2)cn1 [Compound I-154] | 20 to 80 | 20 to 80
COc1cccc(Oc2ccc(C(=O)NC3CC(C)(C)NC(C)(C)C3)cc2Cl)c1C#N [Compound I-333] | 5 to 20 | < 5
Cc1cc(C(=O)NC2CC(C)(C)NC(C)(C)C2)ccc1Oc1cccc(Br)c1C#N [Compound I-259] | < 5 | < 5
CC1(C)CC(NC(=O)c2ccc(COc3cccc(-c4ccc5[nH]ccc5c4)c3)cc2)CC(C)(C)N1 [Compound I-183] | 20 to 80 | 20 to 80
CC1(C)CC(NC(=O)c2ccc(Oc3cccc(I)c3C#N)c(Cl)c2)CC(C)(C)N1 [Compound I-257] | < 5 | < 5
CC1(C)CC(NC(=O)c2ccc(Oc3cccc(-c4cn[nH]c4)c3C#N)c(Cl)c2)CC(C)(C)N1 [Compound I-307] | < 5 | < 5
CC1(C)CC(NC(=O)c2ccc(Oc3ccccc3C#N)c(Br)c2)CC(C)(C)N1 [Compound I-186] | 5 to 20 | < 5
CC1(C)CC(NC(=O)c2ccc(Oc3cccc(NCC(N)=O)c3)c(Cl)c2)CC(C)(C)N1 [Compound I-304] | > 80 | 5 to 20
CC1(C)CC(NC(=O)c2ccc(Oc3cccc(F)c3C#N)c(Cl)c2)CC(C)(C)N1 [Compound I-258] | < 5 | < 5
CCc1cccc(Oc2ccc(C(=O)NC3CC(C)(C)NC(C)(C)C3)cc2C)c1C#N [Compound I-266] | < 5 | < 5
CC1(C)CC(NC(=O)c2ccc(Oc3ccccc3-c3cccnc3)c(Cl)c2)CC(C)(C)N1 [Compound I-207] | 20 to 80 | < 5
CC1(C)CC(NC(=O)c2ccc(-n3ncc4ccccc43)c(Cl)c2)CC(C)(C)N1 [Compound I-327] | 5 to 20 | < 5
CC1(C)CC(NC(=O)c2ccc(Oc3cccc4cnccc34)cc2)CC(C)(C)N1 [Compound I-171] | 20 to 80 | < 5
CC1(C)CC(NC(=O)c2ccc(/C=C/c3ccccc3)cc2)CC(C)(C)N1 [Compound I-330] | > 80 | 20 to 80
CC1(C)CC(N2CCc3cc(Oc4ccccc4C#N)c(Cl)cc3C2=O)CC(C)(C)N1 [Compound I-163] | > 80 | 20 to 80

Next, values leading:

IC50 (Y641N EZH2) [µM] | IC50 (EZH2) [µM] | SMILES
< 5 | < 5 | CC1(C)CC(NC(=O)c2ccc(Oc3cccc(-c4ccnc(C#N)c4)c3C#N)c(Cl)c2)CC(C)(C)N1 [Compound I-561]
> 80 | < 5 | CC1(C)CC(NC(=O)c2ccc(Oc3cccc(-c4ccnnc4)c3C#N)c(Cl)c2)CC(C)(C)C1=O [Compound I-564]
> 80 | 20 to 80 | CNCc1cccc(Oc2ccc(C(=O)NC3CC(C)(C)NC(C)(C)C3)cn2)c1 [Compound I-415]
5 to 20 | < 5 | CC1(C)CC(NC(=O)c2ccc(Oc3cccc(-c4cncnc4)c3C#N)c(Cl)c2)CC(C)(C)N1 [Compound I-340]
5 to 20 | < 5 | Cc1ccc(-c2cccc(Oc3ccc(C(=O)NC4CC(C)(C)NC(C)(C)C4)cc3Cl)c2C#N)cn1 [Compound I-362]
> 80 | 20 to 80 | CC1(C)CC(NC(=O)N2CCC(Oc3cccc(-c4cn[nH]c4)c3C#N)CC2)CC(C)(C)N1 [Compound I-429]
> 80 | 20 to 80 | CC1(C)CC(NC(=O)c2ccc(Cn3cnc4ccccc43)cc2)CC(C)(C)N1 [Compound I-405]
> 80 | 5 to 20 | CN(C(=O)c1ccc(Oc2ccccc2C#N)c(Cl)c1)C1CC(C)(C)NC(C)(C)C1 [Compound I-344]
20 to 80 | < 5 | CC1(C)CC(OCc2ccc(Oc3cccc(-c4ccncn4)c3C#N)c(Cl)c2)CC(C)(C)N1 [Compound I-591, 2-(2-chloro-4-(((2,2,6,6-tetramethylpiperidin-4-yl)oxy)methyl)phenoxy)-6-(pyrimidin-4-yl)benzonitrile]
20 to 80 | < 5 | CC1(C)CC(NC(=O)c2ccc(Oc3cccc4c3CCNC4)c(Cl)c2)CC(C)(C)N1 [Compound I-423]
> 80 | 20 to 80 | CCc1cccc(Oc2ccc(C(=O)NC3CC(C)(C)NC(C)(C)C3)cc2Cl)c1-c1ccncc1 [Compound I-342]
> 80 | < 5 | CCOc1cc(-c2cccc(Oc3ccc(C(=O)NC4CC(C)(C)NC(C)(C)C4)cc3Cl)c2C#N)ccn1 [Compound I-556]
< 5 | < 5 | CC1(C)CC(NC(=O)c2ccc(Oc3cccc(-c4ccnc(O)c4)c3C#N)c(Cl)c2)CC(C)(C)N1 [Compound I-583]
> 80 | < 5 | CC1(C)CC(NC(=O)c2ccc(Oc3cccc(C4CCCO4)c3C#N)c(Cl)c2)CC(C)(C)N1 (stereo not shown) [Compound I-560]
20 to 80 | 20 to 80 | CCc1cccc(Oc2ccc(C(=O)NC3CC(C)(C)NC(C)(C)C3)cc2Cl)c1-c1cccnc1 [Compound I-343]
20 to 80 | < 5 | CC(=O)N1CCC(c2cccc(Oc3ccc(C(=O)NC4CC(C)(C)NC(C)(C)C4)cc3)c2C#N)CC1 [Compound I-536]
> 80 | < 5 | CC1(C)CC(NC(=O)c2ccc(Oc3cccc(-c4ccnnc4)c3C#N)c(Cl)c2)CC(C)(C)S1(=O)=O [Compound I-533]
20 to 80 | 20 to 80 | CC1(C)CC(NC(=O)c2ccc(Oc3cccc(N4CCCC4)c3)c(Cl)c2)CC(C)(C)N1 [Compound I-379]
< 5 | < 5 | CC1(C)CC(NC(=O)c2ccc(Oc3cccc(-c4ccc(O)nc4)c3C#N)c(Cl)c2)CC(C)(C)N1 [Compound I-558]
> 80 | 5 to 20 | CC1(C)CC(NC(=O)c2ccc(Oc3cccc(N4CCCC4=O)c3)c(Cl)c2)CC(C)(C)N1 [Compound I-385]
20 to 80 | > 80 | CC1(C)CC(NC(=O)c2ccc(Cn3ccnc3)cc2)CC(C)(C)N1 [Compound I-404]
< 5 | < 5 | CC1(C)CC(NC(=O)c2ccc(Oc3cccc(-c4ccncn4)c3C#N)c(Cl)c2)CC(C)(C)N1 [Compound I-480, 3-Chloro-4-(2-cyano-3-(pyrimidin-4-yl)phenoxy)-N-(2,2,6,6-tetramethylpiperidin-4-yl)benzamide]
< 5 | < 5 | Cc1cnccc1-c1cccc(Oc2ccc(C(=O)NC3CC(C)(C)NC(C)(C)C3)cc2Cl)c1C#N [Compound I-572]
5 to 20 | < 5 | Cc1cc(-c2cccc(Oc3ccc(C(=O)NC4CC(C)(C)NC(C)(C)C4)cc3Cl)c2C#N)cc(C)n1 [Compound I-585]
